Laboratory results taken from the NIST ThermoML archive (doi:10.1016/j.tca.2004.11.015).

Test: xn = mol fraction of the nth substance listed
Details: 101.33 kPa, Liquid, Vibrating tube method

NCCO [2-aminoethan-1-ol] + CO
mass density [kg/m3]
Details	333.15 K	338.15 K	343.15 K	348.15 K	353.15 K
x1 = 0.05	–	769.67	764.72	759.71	754.62
x1 = 0.1	–	789.76	784.91	780	775.02
x1 = 0.15	–	808.15	803.39	798.56	793.68
x1 = 0.2002	–	825.28	820.58	815.83	811.02
x1 = 0.2501	–	840.8	836.17	831.49	826.76
x1 = 0.2974	–	854.6	850	845.36	840.69
x1 = 0.3502	–	868.88	864.35	859.77	855.14
x1 = 0.4001	–	881.08	876.6	872.07	867.5
x1 = 0.4427	–	890.99	886.55	882.06	877.53
x1 = 0.4502	–	892.86	888.42	883.94	879.42
x1 = 0.5002	–	903.44	899.04	894.6	890.11
x1 = 0.5501	–	913.38	909.01	904.62	900.18
x1 = 0.6001	–	922.8	918.47	914.1	909.7
x1 = 0.6501	–	931.59	927.29	922.96	918.6
x1 = 0.7005	–	940.08	935.81	931.52	927.19
x1 = 0.7479	–	947.22	942.98	938.72	934.42
x1 = 0.8002	–	955.24	951.03	946.8	942.54
x1 = 0.8502	–	961.84	957.66	953.46	949.23
x1 = 0.8967	–	968.16	964.01	959.83	955.62
x1 = 0.9501	978.67	974.57	970.45	966.3	962.12
